From article PMC5843355, “Evaluation of the Trypanosoma brucei 6-oxopurine salvage pathway as a potential target for drug discovery” (PLoS Neglected Tropical Diseases, 2018)
Several values for one entry are separate records, joined by “and”; a condition that tells them apart may be missing. Equal values may be shown once. Read-outs that look alike come from different tables or passages of the source.

How the values were obtained:
HGPRT-II [1] = target: T1, HGPRT-II (Trypanosoma brucei brucei, UniProt Q38C93); experiment: Steady-state kinetic constants of 6-oxopurine bases for HGPRT-II; type: biochemical; conditions: PRib-PP 1 mM, pH 8.4, 25°C
T1 sequence (Q38C93 entry or part of it): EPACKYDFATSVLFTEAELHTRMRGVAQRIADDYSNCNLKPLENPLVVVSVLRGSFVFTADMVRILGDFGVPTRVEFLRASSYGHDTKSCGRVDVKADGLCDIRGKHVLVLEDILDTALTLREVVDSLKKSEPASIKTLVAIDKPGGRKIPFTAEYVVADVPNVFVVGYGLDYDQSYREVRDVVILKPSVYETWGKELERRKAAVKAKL
Method: (§1) The concentration of enzyme in the assay (varied from 75–200 μg/ml for the two enzymes) and the concentration of PRib-PP was kept at 1 mM. The reaction was carried out using a 1.0 cm path length with a UV Visible spectrometer 1601 (Shimadzu) in the reaction buffer (0.1 M Tris, pH 8.4; 0.11 M MgCl2; at 25°C).

HGPRT-I [2] = target: T2, HGPRT-I (Trypanosoma brucei brucei, UniProt Q07010); experiment: Steady-state kinetic constants of 6-oxopurine bases for HGPRT-I; type: biochemical; conditions: PRib-PP 1 mM, pH 8.4, 25°C
T2 construct: 6x His-tag (N); AcTEV cleavage site (N); made in house; host or cells: E. coli One Shot BL21(DE3)
T2 sequence (Q07010 2-210 limits assumed): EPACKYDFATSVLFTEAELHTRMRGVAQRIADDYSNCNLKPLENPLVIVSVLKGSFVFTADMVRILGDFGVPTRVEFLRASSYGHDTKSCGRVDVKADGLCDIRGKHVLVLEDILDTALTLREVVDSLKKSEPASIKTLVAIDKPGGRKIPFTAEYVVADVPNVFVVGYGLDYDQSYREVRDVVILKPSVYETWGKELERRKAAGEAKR
Method: as §1

HGPRT-II [3] = target: T1, HGPRT-II; experiment: Inhibition studies, Ki for recombinant HGPRT-II (spectrophotometric assay); type: biochemical
Method: as §1
(§2) The concentrations of inhibitors in the assay ranged from 1 nM to 100 μM, depending on the steady-state kinetics of the respective enzyme at that concentration of inhibitor. The reaction was preceded by 1 minute incubation of the respective enzyme with the given inhibitor. The Ki values were calculated using non-linear regression in GraphPad Prism5.

HGPRT-I [4] = target: T2, HGPRT-I; experiment: Inhibition studies, Ki for recombinant HGPRT-I (spectrophotometric assay); type: biochemical; conditions: 0.1 M Tris pH 8.4, 0.11 M MgCl2, 25°C, parent ANP
Method: as §1, §2

HGXPRT [5] = target: T3, HGXPRT (Trypanosoma brucei brucei, UniProt Q38CA1); experiment: Inhibition studies, Ki for recombinant HGXPRT (spectrophotometric assay); type: biochemical; conditions: 0.1 M Tris pH 8.4, 0.11 M MgCl2, 25°C, parent ANP
T3 sequence (Q38CA1 entry or part of it): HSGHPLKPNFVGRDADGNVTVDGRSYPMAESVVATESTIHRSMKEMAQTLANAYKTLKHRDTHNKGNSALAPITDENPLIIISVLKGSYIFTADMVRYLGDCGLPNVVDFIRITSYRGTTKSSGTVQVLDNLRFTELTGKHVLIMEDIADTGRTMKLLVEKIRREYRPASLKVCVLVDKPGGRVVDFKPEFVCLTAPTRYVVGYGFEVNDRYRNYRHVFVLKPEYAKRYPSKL
Method: as §1, §2

HGXPRT [6] = target: T3, HGXPRT; experiment: Steady-state kinetic constants of 6-oxopurine bases for HGXPRT; conditions: PRib-PP 1 mM, pH 8.4, 25°C
Method: as §1

[7] = 0.1 M Tris pH 8.4, 0.11 M MgCl2, 25°C, parent ANP

| Ki (HGPRT-II [3]; [7]) | Ki (HGPRT-I [4]; read-out: HGPRT-I Ki) | Ki (HGXPRT [5]; read-out: HGXPRT Ki) | Compound | other results |
| --- | --- | --- | --- | --- |
| – | – | – | O=c1[nH]c(=O)c2nc[nH]c2[nH]1 [Xanthine] | Km (HGPRT-II [1]): No activity detected; kcat (HGPRT-II [1]): No activity detected; kcat (HGPRT-II [1]; listed as xanthine): no activity; Km (HGPRT-I [2]): No activity detected; kcat (HGPRT-I [2]): No activity detected; Km (HGPRT-I [2]; listed as xanthine): no affinity; kcat (HGPRT-I [2]; listed as xanthine): no activity |
| 250 ± 20 nM | 110 nM | 6540 nM | Nc1nc2c(ncn2CCN(CCOCP(=O)(O)O)CCP(=O)(O)O)c(=O)[nH]1 [compound 2] | – |
| 1880 ± 170 nM | 890 ± 70 nM | 770 ± 60 nM | Nc1nc2c(ncn2CC(COCCP(=O)(O)O)OCCP(=O)(O)O)c(=O)[nH]1 (stereo not drawn) [compound 7] | – |
| 7020 ± 1620 nM | 2470 ± 440 nM | 10500 ± 1320 nM | O=c1[nH]cnc2c1ncn2CCN(CCN(CCP(=O)(O)O)CCP(=O)(O)O)CCP(=O)(O)O [compound 5] | – |
| – | – | – | Nc1nc2nc[nH]c2c(=O)[nH]1 [Guanine] | kcat (HGXPRT [6]): 1.36 s⁻¹; kcat (HGPRT-II [1]): 0.05 s⁻¹ |
| 310 ± 60 nM | 290 ± 20 nM | – | Nc1nc2c(ncn2CCN(CCN(CCP(=O)(O)O)CCP(=O)(O)O)CCP(=O)(O)O)c(=O)[nH]1 [compound 4] | Ki (HGXPRT [5]; HGXPRT Ki): 1860 ± 290 nM |
| 14200 ± 610 nM | 13500 ± 830 nM | 19900 ± 1750 nM | N#CCCN(CCn1cnc2c(=O)[nH]c(N)nc21)CCP(=O)(O)O [compound 1] | – |
| – | – | – | Nc1nc2c(ncn2CC(COCP(=O)(O)O)COCP(=O)(O)O)c(=O)[nH]1 [compound 6] | Ki (HGPRT-II [3]): 200 nM and < 1000 nM; Ki (HGPRT-I [4]; HGPRT-I Ki): < 1000 nM; Ki (HGXPRT [5]; HGXPRT Ki): < 1000 nM |
| 60 nM and < 1000 nM | 120 nM and < 1000 nM | 380 nM and < 1000 nM | O=c1[nH]cnc2c1ncn2CCN(CCOCP(=O)(O)O)CCP(=O)(O)O [compound 3] | – |
